Measured values reported in patent US11225490B2, “Prodrugs of secondary amine compounds” (Alkermes Pharma Ireland Limited, priority 2011, dated 2022).

experiment: Pharmacokinetic evaluation of prodrugs in rats (plasma olanzapine and prodrug after intramuscular injection); assay type: in vivo, Male Sprague-Dawley rats; details: ([Prodrug AUClast/MWprodrug]/[OLZ AUCINF/MWOLZ])*100, IM, dose 3 mg
Protocol: Male Sprague-Dawley rats (Charles River Laboratories, Wilmington, Mass.) 25 male Sprague-Dawley rats are obtained. Approximately 24 rats are used in each study. Rats are approximately 325-350 g at time of arrival, and are housed 2 per cage with ad libitum chow and water. Environmental conditions in the housing room are 64-76° F., 30% to 70% relative humidity, and 12:12-h light:dark cycle. All experiments are approved by the Institutional Animal Care and Use Committee.
Prodrug compounds (Compound 56, Compound 111, and Compound 112) of the invention and corresponding parent drugs of the prodrugs are tested.
Rats are dosed IM by means of a 25 gauge, ⅝ in. needle with 1 cc syringe. 0.3mL suspension is withdrawn from the vial containing the test compound. The rat is injected in the muscles of the hind limb after anesthesia with isoflourane. Blood samples are collected via a lateral tail vein after brief anesthesia with Isoflurane. A 27½ G needle and lcc syringe without an anticoagulant is used for the blood collection. Approximately 250 μL of whole blood is collected at each sampling time point of 1 hour, 6 hours, 24 hours and 2, 3, 6, 7, 10, 14 days after administration. Once collected, whole blood is immediately transferred to tubes containing an esterase inhibitor and anti-coagulant, inverted 10-15 times and immediately placed on ice. The tubes are centrifuged for 2 minutes at >14,000 g's (11500 RPMs using Eppendorf Centrifuge at 2-6° C. to separate plasma. Plasma samples are transferred to labeled plain tubes and stored frozen at <−70° C. The study design is shown in Table 5 and the PK results are given in Table 6.
The Olanzapine and prodrug concentrations in plasma samples were analyzed by liquid chromatography-tandem mass spectroscopy using appropriate parameters for each compound.
Half life, maximal concentration, and AUC are calculated using WinNonlin software, version 5.2 (Pharsight, St. Louis, Mo.). (FIGS. 1-4).

Structure (SMILES) | Relative exposure of prodrug
CCCCCCCCCCCCCCCC(=O)OCOC(=O)N1C(N2CCN(C)CC2)=c2cc(C)sc2=Nc2ccccc21 [Compound 56, (palmitoyloxy)methyl 2-methyl-4-(4-methylpiperazin-1-yl)-5H-benzo[b]thieno[2,3-e][1,4]diazepine-5-carboxylate] | Not detected
CCCCCCCCCCCCCCCCCC(=O)OCOC(=O)N1C(N2CCN(C)CC2)=c2cc(C)sc2=Nc2ccccc21 [Compound 111, (stearoyloxy)methyl 2-methyl-4-(4-methylpiperazin-1-yl)-5H-benzo[b]thieno[2,3-e][1,4]diazepine-5-carboxylate] | <3%
CCCCCCCCCCCCCCCCCCCC(=O)OCOC(=O)N1C(N2CCN(C)CC2)=c2cc(C)sc2=Nc2ccccc21 [Compound 112, (icosanoyloxy)methyl 2-methyl-4-(4-methylpiperazin-1-yl)-5H-benzo[b]thieno[2,3-e][1,4]diazepine-5-carboxylate] | 12%
